Measurements as given in patent publication EP0226973A2, “4-Bis(2'-hydroxyethyl)amino-1-(3'-hydroxypropyl)amino-2-nitro-benzene, process for its preparation and means for dyeing hair” (Wella Aktiengesellschaft, priority 1985, dated 1987).
In brackets after ≈: the same amount, converted by molar mass. Like-named read-outs stand apart in the source and are kept apart here.

How the values were obtained:
[1] = Solubility in water; assay type: physicochemical; settings: read-out: Löslichkeit in Wasser
[2] = Ames mutagenicity test; assay type: cell-based; settings: Mutagenitätstest nach Ames
[3] = tested on: Human-Lymphozyten; experiment: Human lymphocyte mutagenicity test; assay type: cell-based; settings: Human-Lymphozytentest
[4] = Toxicological properties (general statement)

solubility [1]	solubility ([1]; ohne Zusatz von Lösungsvermittlern)	SMILES	mutagene Wirkung [2]	mutagene Wirkung [3]	toxikologische Eigenschaften [4]
~5000 µg/mL (≈ 19.6 mM)		CNc1ccc(N(CCO)CCO)cc1[N+](=O)[O-] [Farbstoff (V), 4-Bis(2′-hydroxyethyl)amino-l-methylamino-2-nitro-benzols]	im Gegensatz zu Farbstoff (V)	im Gegensatz zu Farbstoff (V)	sehr unbefriedigend
	< 1500 µg/mL	CCNc1ccc(N(CCO)CCO)cc1[N+](=O)[O-] [Farbstoff (III), 4-Bis(2′-hydroxyethyl)amino-l-ethylamino-2-nitro-benzol]			
~20000 µg/mL (≈ 66.8 mM)		O=[N+]([O-])c1cc(N(CCO)CCO)ccc1NCCCO [Farbstoff (I), 4-Bis(2′-hydroxyethyl)amino-l-(3′-hydroxypropyl)amino-2-nitro-benzol]	keine mutagene Wirkung	keine mutagene Wirkung	
